Target: T1, hFAAH (Homo sapiens, UniProt O00519)
T1 construct: expressed in transfected cells; host or cells: HEK293-TRex (Invitrogen) stably transfected with hFAAH in the pcDNA5-Tet-off vector, or T84 human colon epithelial cells (endogenous hFAAH); used as a microsomal preparation
T1 sequence (O00519 1-579): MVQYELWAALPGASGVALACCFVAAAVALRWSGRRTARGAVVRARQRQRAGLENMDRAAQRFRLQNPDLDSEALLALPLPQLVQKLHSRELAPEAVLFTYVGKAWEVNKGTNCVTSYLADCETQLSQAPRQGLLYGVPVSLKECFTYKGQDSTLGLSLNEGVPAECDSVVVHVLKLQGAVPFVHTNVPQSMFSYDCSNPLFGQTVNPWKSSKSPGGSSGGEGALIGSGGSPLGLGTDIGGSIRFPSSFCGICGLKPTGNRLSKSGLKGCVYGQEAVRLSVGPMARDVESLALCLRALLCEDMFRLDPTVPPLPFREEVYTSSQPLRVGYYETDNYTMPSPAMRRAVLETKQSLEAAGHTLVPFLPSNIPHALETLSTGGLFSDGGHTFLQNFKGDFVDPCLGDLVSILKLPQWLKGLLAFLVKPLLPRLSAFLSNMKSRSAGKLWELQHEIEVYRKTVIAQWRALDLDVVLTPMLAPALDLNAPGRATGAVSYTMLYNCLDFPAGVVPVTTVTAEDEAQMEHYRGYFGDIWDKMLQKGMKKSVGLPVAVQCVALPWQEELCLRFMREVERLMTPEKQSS
Assay: Fluorimetric assay with hFAAH microsomes (enzymatic, fluorescence based)
Assay type: biochemical
Conditions: compound at 1 uM, AA-AMC substrate
Procedure: Human cell line T84 (human colon epithelial cells), which expresses endogenous hFAAH, or HEK293-TRex cells (Invitrogen) stably transfected with hFAAH in the pcDNA5-Tet-off vector are cultured in medium containing DMEM, 10% FBS penicillin/streptomycin, glutamax, 200 μg/ml hygromycin and 0.5 μg/ml blasticidin. Cell collection is done 24 h after induction with doxycycline by first washing the cells with cold PBS and then incubating them with Versene before centrifugation. Cell pellets are then stored at −80° C. until needed. For homogenization, the cell pellets are thawed on ice […] and resuspended in homogenization buffer (50 mM HEPES (pH 7.4), 1 mM EDTA, 1 μM Pepstatin A, 100 μM Leupeptin, 0.1 mg/mL aprotinin). Cell suspensions are then homogenized on ice using the Polytron 1200 C at setting 6 for three 30-second intervals with 30-second rests. The suspension is centrifuged at 1000 g for 10 minutes at 4° C. and the supernatant is collected and further centrifuged at 24000 rpm for 30 minutes at 4° C. using an ultracentrifuge. Pellets are resuspended by adding in cold microsomal buffer (50 mM HEPES (pH 7.4) and 1 mM EDTA) and sheared through a 23-gauge needle five times, keeping the suspension on ice. Protein concentrations are determined using the BCA assay and aliquoted preparations are stored at −80° C. until needed.
Compound potency against hFAAH is determined using an enzymatic assay with a fluorescence readout. Briefly, experiments were carried out in a 96-well plate format (Corning Costar, # 3370) with a total well volume of 160 μL with components added in the following order: assay buffer (50 mM HEPES (pH 7.4), 1 mM EDTA, 1.4 mg/mL BSA), compound solutions (7 different concentrations per compound in duplicate), microsomal enzyme preparation (10 μg per well) and substrate [AA-AMC (arachadonyl 7-amino 4-methyl coumarin amide), 2 μM]. After a brief shaking, a kinetic read of the plate is obtained using a Tecan Safire II in kinetic mode for 275 cycles with excitation and emission wavelengths of 355 and 460 nm, respectively. Raw data is then processed and analyzed using Assay Explorer and GraphPad Prism.
The following compounds have been or can be prepared according to the methods of the invention. An enzymatic (fluorescence based) assay is performed as described above. In Table 1, activity of each compound is expressed as follows: • ++++ % Inhibition >75% • +++ % Inhibition >50% • ++ % Inhibition >25% • + % Inhibition <25%

inhibition at 1 µM [%]	Compound
> 75	c1ccc(CN2Cc3ncnc(Nc4cnc5ccccc5c4)c3C2)cc1 [Compound 1, (6-Benzyl-6,7-dihydro-5H-pyrrolo[3,4-d]pyrimidin-4-yl)-quinolin-3-yl-amine]
> 75	c1ccc2ncc(Nc3ncnc4c3CN(CC3CCCCC3)C4)cc2c1 [Compound 2, (6-Cyclohexylmethyl-6,7-dihydro-5H-pyrrolo[3,4-d]pyrimidin-4-yl)-quinolin-3-yl-amine]
< 25	CCN1Cc2ncnc(Nc3cnc4ccccc4c3)c2C1 [Compound 3, (6-Ethyl-6,7-dihydro-5H-pyrrolo[3,4-d]pyrimidin-4-yl)-quinolin-3-yl-amine]
< 25	CCCN1Cc2ncnc(Nc3cnc4ccccc4c3)c2C1 [Compound 4, (6-Propyl-6,7-dihydro-5H-pyrrolo[3,4-d]pyrimidin-4-yl)-quinolin-3-yl-amine]
< 25	c1ccc2ncc(Nc3ncnc4c3CN(CC3CC3)C4)cc2c1 [Compound 5, (6-Cyclopropylmethyl-6,7-dihydro-5H-pyrrolo[3,4-d]pyrimidin-4-yl)-quinolin-3-yl-amine]
> 25	CCCCN1Cc2ncnc(Nc3cnc4ccccc4c3)c2C1 [Compound 6, (6-Butyl-6,7-dihydro-5H-pyrrolo[3,4-d]pyrimidin-4-yl)-quinolin-3-yl-amine]
> 25	CC(C)CN1Cc2ncnc(Nc3cnc4ccccc4c3)c2C1 [Compound 7, (6-Isobutyl-6,7-dihydro-5H-pyrrolo[3,4-d]pyrimidin-4-yl)-quinolin-3-yl-amine]
> 75	CCC(C)CN1Cc2ncnc(Nc3cnc4ccccc4c3)c2C1 (centres unmarked) [Compound 8, [6-(2-Methyl-butyl)-6,7-dihydro-5H-pyrrolo[3,4-d]pyrimidin-4-yl]-quinolin-3-yl-amine]
> 50	CC(C)CCN1Cc2ncnc(Nc3cnc4ccccc4c3)c2C1 [Compound 9, [6-(3-Methyl-butyl)-6,7-dihydro-5H-pyrrolo[3,4-d]pyrimidin-4-yl]-quinolin-3-yl-amine]
> 50	CCCCCN1Cc2ncnc(Nc3cnc4ccccc4c3)c2C1 [Compound 10, (6-Pentyl-6,7-dihydro-5H-pyrrolo[3,4-d]pyrimidin-4-yl)-quinolin-3-yl-amine]
> 25	CC(C)(C)CN1Cc2ncnc(Nc3cnc4ccccc4c3)c2C1 [Compound 11, [6-(2,2-Dimethyl-propyl)-6,7-dihydro-5H-pyrrolo[3,4-d]pyrimidin-4-yl]-quinolin-3-yl-amine]
> 75	c1ccc2ncc(Nc3ncnc4c3CN(CC3CCCC3)C4)cc2c1 [Compound 12, (6-Cyclopentylmethyl-6,7-dihydro-5H-pyrrolo[3,4-d]pyrimidin-4-yl)-quinolin-3-yl-amine]
> 25	c1ccc2ncc(Nc3ncnc4c3CN(CC3CCOC3)C4)cc2c1 (centres unmarked) [Compound 13, Quinolin-3-yl-[6-(tetrahydro-furan-3-ylmethyl)-6,7-dihydro-5H-pyrrolo[3,4-d]pyrimidin-4-yl]-amine]
> 75	CCC(CC)CN1Cc2ncnc(Nc3cnc4ccccc4c3)c2C1 [Compound 14, [6-(2-Ethyl-butyl)-6,7-dihydro-5H-pyrrolo[3,4-d]pyrimidin-4-yl]-quinolin-3-yl-amine]
> 25	CC(C)(C)CCN1Cc2ncnc(Nc3cnc4ccccc4c3)c2C1 [Compound 15, [6-(3,3-Dimethyl-butyl)-6,7-dihydro-5H-pyrrolo[3,4-d]pyrimidin-4-yl]-quinolin-3-yl-amine]
> 50	c1ccc2ncc(Nc3ncnc4c3CN(CC3CCCOC3)C4)cc2c1 (centres unmarked) [Compound 16, Quinolin-3-yl-[6-(tetrahydro-pyran-3-ylmethyl)-6,7-dihydro-5H-pyrrolo[3,4-d]pyrimidin-4-yl]-amine]
> 75	Cc1ncccc1CN1Cc2ncnc(Nc3cnc4ccccc4c3)c2C1 [Compound 17, [6-(2-Methyl-pyridin-3-ylmethyl)-6,7-dihydro-5H-pyrrolo[3,4-d]pyrimidin-4-yl]-quinolin-3-yl-amine]

Reference: US20110257208A1, “COMPOUNDS USEFUL AS FAAH MODULATORS AND USES THEREOF” (priority 2008, published 2011)
